Results reported in paper PMC9995496, “A screen for MeCP2-TBL1 interaction inhibitors using a luminescence-based assay” (Scientific Reports, 2023).
Counter-ions that a name gives are not always drawn.

System: PRKACA-PRKAR2A interaction (SmBiT-PRKACA / LgBiT-PRKAR2A), protein kinase A
Set-up: NanoLuc complementation counter-screen in cell extract, PRKACA with PRKAR2A, loss of luminescence, detects NanoLuc interference
Settings: counter-screen for NanoLuc interference, 0.5 h, 20 µM, inhibitor, Inh (PKA)

Inh (PKA) [%]	SMILES
55.16	CN(c1ncccc1CNc1nc(Nc2ccc3c(c2)CC(=O)N3)ncc1C(F)(F)F)S(C)(=O)=O [UM0141980:01, PF-562271]
11.32	CC(=O)c1c(C)c2cnc(Nc3ccc(N4CCNCC4)cn3)nc2n(C2CCCC2)c1=O [UM0141983:01, PD 0332991 (Palbociclib) HCl]
56.79	CN(c1ncccc1CNc1nc(Nc2ccc3c(c2)CC(=O)N3)ncc1C(F)(F)F)S(C)(=O)=O [UM0141986:01, PF-00562271]
1.838	c1ccc2c(-c3cnn4cc(-c5ccc(N6CCNCC6)cc5)cnc34)ccnc2c1 [UM0141989:01, LDN-193189]
11.53	COc1cc(Nc2ncc(F)c(Nc3ccc4c(n3)N(COP(=O)(O)O)C(=O)C(C)(C)O4)n2)cc(OC)c1OC [UM0141996:01, R788 disodium]
9.751	CC(=O)c1c(C)c2cnc(Nc3ccc(N4CCNCC4)cn3)nc2n(C2CCCC2)c1=O [UM0141999:01, Palbociclib (PD0332991) Isethionate]
48.82	CN(c1ncccc1CNc1nc(Nc2ccc3c(c2)CC(=O)N3)ncc1C(F)(F)F)S(C)(=O)=O [UM0142004:01, PF-562271 HCl]
14.36	Cc1ccc(Nc2nccc(N(C)c3ccc4c(C)n(C)nc4c3)n2)cc1S(N)(=O)=O [UM0142006:01, Pazopanib Hydrochloride]

The next lines start with the molecule.

SMILES	Inh (PKA) [%]
COC(=O)N[C@H](C(=O)N[C@@H](Cc1ccccc1)[C@@H](O)CN(Cc1ccc(-c2ccccn2)cc1)NC(=O)[C@@H](NC(=O)OC)C(C)(C)C)C(C)(C)C [UM0141949:01, Atazanavir]	2.849
CCOC(=O)[C@@H](N)CCC(=O)N[C@@H](CSCc1ccccc1)C(=O)N[C@@H](C(=O)OCC)c1ccccc1 [UM0141959:01, Ezatiostat]	2.198

Same assay, conditions: counter-screen for NanoLuc interference; 0.5 h, 20 µM; inhibitor

Inh (PKA) [%]	SMILES
6.662	COc1ccc(-c2ccc3c(N4CCOC[C@@H]4C)nc(N4CCOC[C@@H]4C)nc3n2)cc1CO [UM0141954:01, AZD8055]
33.15	CC(C)(C)n1nc(-c2ccc(Cl)cc2)c2c(N)ncnc21 [UM0141956:01, PP 2 (AG 1879)]
37.99	O=C(NCCCNc1nc(Nc2cccc(NC(=O)N3CCCC3)c2)ncc1I)c1cccs1 [UM0141957:01, BX795]
3.147	CCCC(=O)Nc1cccc(NC(=O)c2ccccc2Br)c1 [UM0141963:01, ML161]
22.36	NC(=O)c1ccc(-c2nc(-c3ccccn3)c(-c3ccc4c(c3)OCO4)[nH]2)cc1 [UM0141970:01, SB 431542]
55.62	CCN(CC)CCNC(=O)c1c(C)[nH]c(/C=C2\C(=O)Nc3ccc(F)cc32)c1C [UM0141973:01, Sunitinib malate]
9.562	Cc1cc(C)nc(NS(=O)(=O)c2ccc(NC(=S)NC(=O)COc3ccc(Br)cc3Cl)cc2)n1 [UM0141974:01, ZCL278]
8.063	CCC(=O)N1CCN(c2ccc(-n3c(=O)ccc4cnc5ccc(-c6cnc7ccccc7c6)cc5c43)cc2C(F)(F)F)CC1 [UM0141981:01, Torin 1]
1.298	Cn1c(Nc2ccc(C(F)(F)F)cc2)nc2cc(Oc3ccnc(-c4ncc(C(F)(F)F)[nH]4)c3)ccc21 [UM0141982:01, RAF265]
10.53	COc1cc2ncnc(Nc3ccc(F)c(Cl)c3)c2cc1NC(=O)/C=C/CN1CCCCC1 [UM0141985:01, Dacomitinib (PF299804, PF299)]
9.342	CCOc1cc2ncc(C#N)c(Nc3ccc(OCc4ccccn4)c(Cl)c3)c2cc1NC(=O)/C=C/CN(C)C [UM0141987:01, Neratinib (HKI-272)]
8.904	CCC[C@H](NC(=O)/C(C#N)=C/c1cccc(Br)n1)c1ccccc1 [UM0141988:01, WP1130]
13.33	Cc1ncc(-c2ccnc(Nc3ccc(S(C)(=O)=O)cc3)n2)n1C(C)C [UM0141991:01, AZD-5438]
11.01	Cc1cc(Nc2ncc(Cl)c(Nc3ccccc3S(=O)(=O)C(C)C)n2)c(OC(C)C)cc1C1CCNCC1 [UM0141993:01, LDK378]
36.81	O=C(O)c1ccc2c(c1)nc(Nc1cccc(Cl)c1)c1ccncc12 [UM0141995:01, CX-4945 (Silmitasertib)]
15.97	C[C@]1(O)C[C@@H](c2nc(-c3ccc4ccc(-c5ccccc5)nc4c3)c3c(N)nccn32)C1 [UM0141998:01, Linsitinib]
4.891	Cc1cnc(CNC(=O)c2c(=O)c3ccc(N4CCCN(C)CC4)nc3n3c2sc2ccccc23)cn1 [UM0142001:01, CX-5461]
1.866	Cc1ccc(S(=O)(=O)OCC(=O)Nc2ccc(C(=O)O)c(O)c2)cc1 [UM0142002:01, NSC 74859]
2.69	Cc1nc(NC(=O)N2CCC[C@H]2C(N)=O)sc1-c1ccnc(C(C)(C)C(F)(F)F)c1 [UM0142005:01, BYL-719]
1.976	Cc1cccc(-c2nn3c(c2-c2ccnc4ccc(C(N)=O)cc24)CCC3)n1 [UM0142007:01, LY2157299]
3.022	COC(=O)N1CCN(Cc2cccc(NC(=O)Nc3ccc(C)nc3)c2F)CC1 [UM0142008:01, Omecamtiv mecarbil]
12.3	COc1cc(CCc2cc(NC(=O)c3ccc(N4C[C@@H](C)N[C@@H](C)C4)cc3)n[nH]2)cc(OC)c1 [UM0142009:01, AZD4547]
0.4537	Cn1cnc(N)c2ncnc1-2 [UM0142011:01, 3-Methyladenine]
-0.9072	Oc1ncnc2[nH]ncc12 [UM0142014:01, Allopurinol]
2.375	CNC(=O)c1ccc(N2C(=S)N(c3cnc(C#N)c(C(F)(F)F)c3)C(=O)C23CCC3)cc1F [UM0142016:01, ARN-509]
12.53	C=CC(=O)Nc1ccc2ncnc(Nc3ccc(OCc4cccc(F)c4)c(Cl)c3)c2c1 [UM0142018:01, AST-1306]

The next lines start with the molecule.

SMILES	Inh (PKA) [%]
Cc1cccc(C)c1OCC(=O)N[C@@H](Cc1ccccc1)[C@@H](O)C[C@H](Cc1ccccc1)NC(=O)[C@H](C(C)C)N1CCCNC1=O [UM0141948:01, Lopinavir]	17.52
CC(C)CN(C[C@@H](O)[C@H](Cc1ccccc1)NC(=O)O[C@H]1CO[C@H]2OCC[C@H]21)S(=O)(=O)c1ccc(N)cc1 [UM0141950:01, Darunavir]	4.833
COc1cc2c(cc1OC)CN(CCc1ccc(NC(=O)c3cc(OC)c(OC)cc3NC(=O)c3cnc4ccccc4c3)cc1)CC2 [UM0141951:01, Tariquidar]	12.46
N#CSc1cc(SC#N)c(N)nc1N [UM0141952:01, PR-619]	19.82
COc1ccc(CCC(=O)Nc2nc3ccc(Cl)cc3s2)cc1OC [UM0141953:01, KY 02111]	9.326
O=C(Nc1ccc(CN2CCOCC2)cc1)c1ccc(-c2cccc(Cl)c2)o1 [UM0141958:01, CID 2011756]	20.99
N#Cc1c(Oc2ccc(F)c(NC(=O)Cc3cccc(C(F)(F)F)c3)c2)ccc2nc(NC(=O)C3CC3)sc12 [UM0141960:01, TAK-632]	4.577
CC(=O)[C@]1(N)Cc2c(O)c3c(c(O)c2[C@@H](O[C@H]2C[C@H](O)[C@H](O)CO2)C1)C(=O)c1ccccc1C3=O [UM0141961:01, Amrubicin]	25.46
c1ccc2c(Oc3nc(Nc4ccc(N5CCOCC5)cc4)c4ncn(C5CCCCC5)c4n3)cccc2c1 [UM0141962:01, Purmorphamine]	11.44
Cc1ccc2c(=O)c3cccc(CC(=O)O)c3oc2c1C [UM0141964:01, DMXAA (Vadimezan)]	2.691
CNC(=O)c1cc(Oc2ccc(NC(=O)c3cccc(C(F)(F)F)c3)cc2)ccn1 [UM0141965:01, SKLB610]	8.796
CCO[C@@H]1OC(=O)C[C@@H]1NC(=O)[C@@H]1CCCN1C(=O)[C@@H](NC(=O)c1ccc(N)c(Cl)c1)C(C)(C)C [UM0141966:01, VX-765]	0.4442
CCCNC(=O)[C@H]1O[C@@H]1C(=O)N[C@H](C(=O)N1CCC[C@H]1C(=O)OC)[C@@H](C)CC [UM0141967:01, CA-074 Me]	-0.4464
FC(F)c1nc2ccccc2n1-c1nc(N2CCOCC2)nc(N2CCOCC2)n1 [UM0141969:01, ZSTK474]	3.548
COc1cc(N2CCC(N3CCN(C)CC3)CC2)ccc1Nc1ncc(Cl)c(Nc2ccccc2S(=O)(=O)C(C)C)n1 [UM0141971:01, TAE684 (NVP-TAE684)]	23
COC(=O)c1ccc2c(c1)NC(=O)/C2=C(\Nc1ccc(N(C)C(=O)CN2CCN(C)CC2)cc1)c1ccccc1 [UM0141972:01, Nintedanib (BIBF 1120)]	17.71
CN(C)CCCCC(=O)Nc1ccc(NC(=S)NC(=O)c2ccc(C(C)(C)C)cc2)cc1 [UM0141976:01, Tenovin-6]	9.354
Cc1ccc(NC(=O)Nc2cc(C(F)(F)F)ccc2F)cc1Nc1ccc2c(c1)NC(=O)/C2=C\c1ccc[nH]1 [UM0141977:01, GNF-5837]	11.58
CNC(=O)c1ccc(C)c(-n2c(C)cc(OCc3ccc(F)cc3F)c(Br)c2=O)c1 [UM0141978:01, PH-797804]	5.099
O=C1NC(=O)[C@@H](c2cn3c4c(cccc24)CCC3)[C@@H]1c1c[nH]c2ccccc12 [UM0141990:01, Tivantinib (ARQ 197)]	34.28
Nc1nc(Nc2ccc3c(c2)CCC(N2CCCC2)CC3)nn1-c1cc2c(nn1)-c1ccccc1CCC2 (stereo not shown) [UM0141994:01, R428]	28.03
Cc1ccc([C@@H]2O[C@H](CO)[C@@H](O)[C@H](O)[C@H]2O)cc1Cc1ccc(-c2ccc(F)cc2)s1 [UM0141997:01, Canagliflozin]	13.33
C[C@@H]1CN(CC(=O)Nc2ccc3c(c2)Cc2cccc(-c4cc(=O)cc(N5CCOCC5)o4)c2S3)C[C@H](C)O1 [UM0142000:01, KU-60019]	8.664
Cc1ccc(NC(=O)C2(c3ccc4c(c3)OC(F)(F)O4)CC2)nc1-c1cccc(C(=O)O)c1 [UM0142010:01, VX-809]	21.09
CC1CNc2c(cccc2S(=O)(=O)N[C@@H](CCCNC(=N)N)C(=O)N2CC[C@@H](C)C[C@@H]2C(=O)O)C1 (stereo partly shown) [UM0142015:01, Argatroban]	1.414
